Experimental data taken from PMC10082216 (Nature Communications, 2023).
Several values for one entry are separate records, joined by “and”; a condition that tells them apart may be missing. Identical values can stand only once. Like-named read-outs stand apart in the source and are kept apart here.

Assay: TD-6450 phase I clinical study (SAD/MAD): pharmacokinetics
Format: in vivo, human
Details: for Cmax: read-out: Cmax Mean ± SD; for half-life: read-out: t1/2 Mean ± SD (converted)
Description: Primary and secondary outcomes were pre-defined as follows: Safety and tolerability as a primary outcome, pharmacokinetics as a secondary outcome. Safety and tolerability were evaluated using standard measures, including adverse event (AE) monitoring, clinical laboratory tests (hematology, serum chemistry, coagulation, and urinalysis), vital signs, physical examinations, and 12-lead electrocardiograms (ECGs). […]
This study was conducted in two parts, Part A (SAD) and Part B (MAD). For the Part A, the age of enrolled subjects ranged from 20 to 60 years, with a mean age range of 32.1 to 46.2 years. Most subjects were male (73 total subjects) and most were white (55 subjects) or black (22 subjects). For Part B of the study, ages ranged from 23 to 60 years with a similar mean age across treatment groups. Most subjects were male (25 total subjects) and all were either white (18 subjects) or black (12 subjects). For each part of the study, the mean body mass index (BMI) and creatinine clearance were similar across treatment groups. […] Part A: Healthy subjects were sequentially enrolled and randomly assigned to each dose cohort (up to 10 dose-ascending cohorts were planned, including a fed arm in the food effect cohort) to receive either a single dose of TD-6450 or placebo. For each dose cohort, 8 subjects were randomized in a 3:1 ratio (6 subjects received TD-6450 and 2 subjects received placebo). The starting dose of TD-6450 was 0.5 mg with a planned maximum dose of 1000 mg. Upon review of the 500-mg cohort PK data, the decision was made to not escalate to the 1000-mg cohort because of exposure saturation at ≥ 500 mg. The following doses were administered: 0.5 mg, 1.5 mg, 5 mg, 15 mg, 30 mg, 60 mg, 120 mg, 240 mg, and 500 mg. Part B: Healthy subjects were sequentially enrolled in 3 ascending dose cohorts (TD-6450 60 mg, 120 mg, and 240 mg) and randomly assigned to receive either TD-6450 or placebo as once daily doses for 14 days. For each dose cohort, 10 subjects were randomized in a 4:1 ratio (8 subjects received TD-6450 and 2 subjects received placebo). Blinded safety, tolerability, and available PK data after each dose cohort were reviewed by the Safety Data Review Committee (SDRC) before escalation to the next dosing cohort for both part A and B. Subjects of the clinical study were randomly assigned to each cohort. Randomizations codes were assigned to the subjects. All study subjects, study investigators, and the sponsor’s staff involved in the conduct of the study were blinded to treatment assignment. The only personnel who had access to the randomization code before database lock were: The pharmacist or pharmacy staff member who prepared drug or placebo capsules for administration to the subject according to the randomization code and the bioanalytical contract laboratory that analyzed the PK samples (plasma and urine).

[1] = Male subjects, SAD arm NCT02022306, Dose 30.00, 3 Hours
[2] = Male subjects, SAD arm NCT02022306, Dose 30.00, 4 Hours
[3] = Male subjects, SAD arm NCT02022306, Dose 30.00, 72 Hours
[4] = Male subjects, SAD arm NCT02022306, Dose 30.00, 96 Hours
[5] = Male subjects, SAD arm NCT02022306, Dose 30.00, 120 Hours
[6] = Male subjects, SAD arm NCT02022306, Dose 30.00, 144 Hours
[7] = Male subjects, SAD arm NCT02022306, Dose 30.00, 168 Hours
[8] = Male subjects, SAD arm NCT02022306, Dose 30.00, Predose
[9] = both sexes, human, plasma, oral, 1.5 mg, SAD 1.5 mg
[10] = both sexes, human, plasma, oral, 5 mg, SAD 5 mg
[11] = both sexes, human, plasma, oral, 15 mg, SAD 15 mg
[12] = both sexes, human, plasma, oral, 30 mg, SAD 30 mg

CNC(=O)N1C[C@@H](C)N(c2ccc(C(=O)Nc3ccc(-c4ccc(-c5c[nH]c([C@@H]6CCCN6C(=O)[C@@H](NC(=O)OC)C(C)C)n5)cc4)c(OC(F)(F)F)c3)cn2)C[C@@H]1C [TD-6450]
Concentration (Female subjects, SAD arm NCT02022306, Dose 0.50, Predose): 0.00 ng/mL
Concentration (Female subjects, SAD arm NCT02022306, Dose 5.00, Predose): 0.00 ng/mL
Concentration (Female subjects, SAD arm NCT02022306, Dose 15.00, Predose): 0.00 ng/mL
Concentration (Female subjects, SAD arm NCT02022306, Dose 30.00, 3 Hours): 41.80 ng/mL
Concentration (Female subjects, SAD arm NCT02022306, Dose 30.00, 4 Hours): 44.70 ng/mL
Concentration (Female subjects, SAD arm NCT02022306, Dose 30.00, 6 Hours): 43.90 ng/mL
Concentration (Female subjects, SAD arm NCT02022306, Dose 30.00, 8 Hours): 35.40 ng/mL
Concentration (Female subjects, SAD arm NCT02022306, Dose 30.00, 12 Hours): 27.90 ng/mL
Concentration (Female subjects, SAD arm NCT02022306, Dose 30.00, 24 Hours): 20.20 ng/mL
Concentration (Female subjects, SAD arm NCT02022306, Dose 30.00, 48 Hours): 17.50 ng/mL
Concentration (Female subjects, SAD arm NCT02022306, Dose 30.00, 72 Hours): 12.70 ng/mL
Concentration (Female subjects, SAD arm NCT02022306, Dose 30.00, 96 Hours): 9.33 ng/mL
Concentration (Female subjects, SAD arm NCT02022306, Dose 30.00, 120 Hours): 7.89 ng/mL
Concentration (Female subjects, SAD arm NCT02022306, Dose 30.00, 144 Hours): 6.17 ng/mL
Concentration (Female subjects, SAD arm NCT02022306, Dose 30.00, 168 Hours): 4.12 ng/mL
Concentration (Female subjects, SAD arm NCT02022306, Dose 30.00, Predose): 0.00 ng/mL
Concentration (Female subjects, SAD arm NCT02022306, Dose 60.00, Predose): 0.00 ng/mL
Concentration (Male subjects, SAD arm NCT02022306, Dose 0.50, Predose): 0.00 ng/mL
Concentration (Male subjects, SAD arm NCT02022306, Dose 1.50, Predose): 0.00 ng/mL
Concentration (Male subjects, SAD arm NCT02022306, Dose 5.00, Predose): 0.00 ng/mL
Concentration (Male subjects, SAD arm NCT02022306, Dose 15.00, Predose): 0.00 ng/mL
Concentration [1]: 16.10 ng/mL
Concentration (ng/ml) [1]: 14.80 ng/mL
Concentration [2]: 17.80 ng/mL
Concentration (ng/ml) [2]: 18.90 ng/mL
Concentration (Male subjects, SAD arm NCT02022306, Dose 30.00, 6 Hours): 21.60 ng/mL
Concentration (Male subjects, SAD arm NCT02022306, Dose 30.00, 8 Hours): 20.90 ng/mL
Concentration (Male subjects, SAD arm NCT02022306, Dose 30.00, 12 Hours): 16.40 ng/mL
Concentration (Male subjects, SAD arm NCT02022306, Dose 30.00, 24 Hours): 12.70 ng/mL
Concentration (Male subjects, SAD arm NCT02022306, Dose 30.00, 48 Hours): 9.02 ng/mL
Concentration [3]: 7.45 ng/mL
Concentration (ng/ml) [3]: 9.39 ng/mL
Concentration [4]: 6.04 ng/mL
Concentration (ng/ml) [4]: 7.13 ng/mL
Concentration [5]: 4.98 ng/mL
Concentration (ng/ml) [5]: 5.80 ng/mL
Concentration [6]: 3.71 ng/mL
Concentration (ng/ml) [6]: 4.24 ng/mL
Concentration [7]: 3.30 ng/mL
Concentration (ng/ml) [7]: 3.28 ng/mL
Concentration [8]: 0.00 ng/mL
Concentration (ng/ml) [8]: 0.00 ng/mL
Concentration (ng/ml) (Male subjects, SAD arm NCT02022306, Dose 60.00, 8 Hours): 61.90 ng/mL and 92.80 ng/mL and 97.50 ng/mL and 65.40 ng/mL
Concentration (ng/ml) (Male subjects, SAD arm NCT02022306, Dose 60.00, Predose): 0.00 ng/mL
Concentration (ng/ml) (Male subjects, SAD arm NCT02022306, Dose 120.00, Predose): 0.00 ng/mL
Concentration (ng/ml) (Male subjects, SAD arm NCT02022306, Dose 240.00, Predose): 0.00 ng/mL
Concentration (ng/ml) (Male subjects, SAD arm NCT02022306, Dose 500.00, 30 Minutes): 2.54 ng/mL and 3.61 ng/mL and 2.21 ng/mL
Concentration (ng/ml) (Male subjects, SAD arm NCT02022306, Dose 500.00, Predose): 0.00 ng/mL
Cmax (both sexes, human, plasma, oral, 0.5 mg, SAD 0.5 mg): 0.5 ± 0.1 nM
Cmax [9]: 1.5 ± 0.4 nM
half-life [9]: 84.3 h
Cmax [10]: 5.37 ± 1.8 nM
half-life [10]: 71.7 ± 5.2 h
Cmax [11]: 21 ± 7.9 nM
half-life [11]: 77 ± 14.2 h
Cmax [12]: 37.4 ± 19 nM
half-life [12]: 66.9 ± 9 h
Cmax at 1 day (both sexes, human, plasma, oral, 60 mg, MAD 60 mg, day 1, read-out: Cmax Mean ± SD, D1): 97.4 nM
Cmax at 14 day (both sexes, human, plasma, oral, 60 mg, MAD 60 mg, day 14, read-out: Cmax Mean ± SD, D14): 398 ± 146 nM
half-life at 14 day (both sexes, human, plasma, oral, 60 mg, MAD 60 mg, day 14, read-out: t1/2 Mean ± SD, D14 (converted)): 62.3 ± 10 h
